We go through five compounds from publication PMC12948427 (The Journal of Clinical Investigation, 2025).

Values joined by “and” are separate entries in the source; they are usually repeats but may differ in a detail not shown here. Equal values may be shown once. Read-outs that look alike come from different tables or passages of the source. Ends that are not written are not given here.

Data set [1] has as its system MHV.
For a further data set, the system named is M protein. In words: BFA treatment and washout: ER export of M protein in 17Cl-1 cells. The settings on record: for Colocalization of M protein with ERGIC53 / Colocalization of M protein with SEC61B: individual replicate values, Figure S5A; for ERGIC53 (colocalization value, Figure S5B) / SEC61B (colocalization value, Figure S5B): individual replicates. It is filed as cell-based. As to the method: 70–80% confluent 17Cl-1 cells were treated with 5 µg/mL final BFA (Catalog no #HY-
16592; MCE) for 40 min at 37°C. BFA was washed out by three brief rinses in PBS and
cells were then incubated at 37°C for 5 h before fixation with 4% PFA.

Data set [2] has as its system MHV. It counts as cell-based, mouse hepatitis virus (MHV). The settings on record: RTB 0 uM.
The test system of the next data set is SARS-CoV-2 Omicron BA.5. It counts as in vivo, K18-hACE2 C57BL/6 mice.
Data set [3] in a line: in vitro. The settings on record: human, Calu-3 cells, cell viability, Figure S7G.
Data set [4] in a line: in vitro. The settings on record: mouse, 17Cl-1 cells, cell viability, Figure S7E.
Data set [5] in a line: in vitro. The settings on record: Vero E6 cells, cell viability, Figure S7F.

For `COc1ccc(N)cn1` [5-amino-2 methoxypyridine], the “viability of infected cells (rescue of cytopathic effect), Figures S9G-L” value in the data set with MHV [1] (concentration 10) was 50.187 and 47.1573 and 49.7662; in the data set on MHV [1] (concentration 30) it was 52.4593 and 51.6738 and 47.1012; with MHV [1] (concentration 100), 53.2448 and 47.1573 and 49.2052; in the data set with MHV [1] (concentration 300) it was 49.4576 and 49.4296 and 47.5781; in the data set on MHV [1] (concentration 1000), 50.0187 and 48.055 and 47.0451; with MHV [1] (concentration 3000), 52.3191 and 51.9824 and 49.121. The “viability of infected cells (rescue of cytopathic effect), Figures S9G-L” value in the data set with MHV [1] (concentration 10000) is 58.7432 and 53.4412 and 53.7217; with MHV [1] (concentration 25000) it was 59.3884 and 60.7069 and 59.0799. Moreover, the “cell viability, Figures S9A, B, D-F” value in the data set with 17Cl-1 cells (concentration 0.01), with 17Cl-1 cells (concentration 0.03), with 17Cl-1 cells (concentration 0.1), in the data set with 17Cl-1 cells (concentration 0.3), in the data set on 17Cl-1 cells (concentration 1) and in the data set with 17Cl-1 cells (concentration 3) was 100 throughout. For the same compound, the “cell viability, Figures S9A, B, D-F” value is on record as 100 with 17Cl-1 cells (concentration 10) and 103.896 in the data set on 17Cl-1 cells (concentration 25).
On to `C[C@H]1CCC/C=C/[C@@H]2C[C@H](O)C[C@H]2[C@H](O)/C=C/C(=O)O1` [BFA, Brefeldin A], for which, in the data set with M protein (5h BFA washout), the “Colocalization of M protein with ERGIC53” value was 0.876 and 0.833 and 0.817; the “Colocalization of M protein with SEC61B” value was 0.423 and 0.481 and 0.508; the “ERGIC53 (colocalization value, Figure S5B)” value was 0.399 and 0.424 and 0.407; the “SEC61B (colocalization value, Figure S5B)” value is 0.895 and 0.946 and 0.906. For the same compound, in the data set with M protein (BFA treatment), the “Colocalization of M protein with ERGIC53” value is 0.305 and 0.466 and 0.315; the “Colocalization of M protein with SEC61B” value was 0.951 and 0.905 and 0.916; the “ERGIC53 (colocalization value, Figure S5B)” value was 0.418 and 0.389 and 0.288; the “SEC61B (colocalization value, Figure S5B)” value is 0.951 and 0.926 and 0.886. The “ER export of M protein” value in the data set with M protein (WT 17Cl-1 cells, 5 µg/mL BFA, 40 min) is on record as “effectively blocked”.
Take `CC(C)C(=O)OC[C@H]1O[C@@H](n2ccc(NO)nc2=O)[C@H](O)[C@@H]1O` [Molnupiravir]: the “Inhibition, combination matrix (Figure S12C)” value was -6.464 in the data set on MHV [2] (Molnupiravir 0.01 uM); -1.441 in the data set on MHV [2] (Molnupiravir 0.03 uM); -1.4813 in the data set with MHV [2] (Molnupiravir 0.1 uM); 3.455 in the data set with MHV [2] (Molnupiravir 0.3 uM); 0.7848 in the data set on MHV [2] (Molnupiravir 1 uM); 9.711 with MHV [2] (Molnupiravir 3 uM). The figures for the “Inhibition, combination matrix (Figure S12C)” value with MHV [2] (Molnupiravir 10 uM) and in the data set with MHV [2] (Molnupiravir 25 uM) were 41.7804 and 66.457, respectively. For the same compound, the “Survival curves: per-mouse event code” value in the data set with SARS-CoV-2 Omicron BA.5 (mouse, in vivo) is 0. Also, the “body weight relative to start (Figure 5N)” value was 100 with SARS-CoV-2 Omicron BA.5 (mouse, in vivo); 98.8156 and 99.095 and 100.646 and 100.079 and 100.862 and 100.376 and 98.4711 and 101.287 with SARS-CoV-2 Omicron BA.5 (time 3); 100.79 and 100.302 and 100.727 and 102.248 and 100.911 and 101.609 and 100.096 and 100.919 in the data set on SARS-CoV-2 Omicron BA.5 (time 5); 102.338 and 103.472 and 103.062 and 103.016 and 101.448 and 100.239 and 100.322 in the data set with SARS-CoV-2 Omicron BA.5 (time 8); 102.338 and 103.472 and 103.062 and 103.016 and 101.448 and 100.239 and 100.322 with SARS-CoV-2 Omicron BA.5 (time 10). Moreover, the “pathological severity scores, lung tissues” value in the data set with SARS-CoV-2 Omicron BA.5 (mouse, in vivo) was 2 and 1.
Regarding `CC(C)(C)[C@H](NC(=O)C(F)(F)F)C(=O)N1C[C@H]2[C@@H]([C@H]1C(=O)N[C@H](C#N)C[C@@H]1CCNC1=O)C2(C)C` [nirmatrelvir], the “Inhibition, combination matrix (Figure S12D)” value with MHV [2] (nirmatrelvir 0.01 uM) is reported as -1.274; in the data set with MHV [2] (nirmatrelvir 0.03 uM), 3.148; in the data set on MHV [2] (nirmatrelvir 0.1 uM), 7.328; with MHV [2] (nirmatrelvir 0.3 uM), 49.1912; with MHV [2] (nirmatrelvir 1 uM), 73.8207; in the data set with MHV [2] (nirmatrelvir 3 uM), 76.6195. The “Inhibition, combination matrix (Figure S12D)” value in the data set with MHV [2] (nirmatrelvir 10 uM) is recorded as 79.1661; in the data set on MHV [2] (nirmatrelvir 25 uM) it was 76.9584.
By viability is commonly meant a read-out of living cells in per cent, often relative to untreated cells. Regarding GRKKRRQRRRPPQDYKDDDDK [FLAG], the viability at 24 h in “in vitro [3]” (peptide concentration 1000) turned out to be 92%; in the data set “in vitro [3]” (peptide concentration 5000), 88.6%; in the data set “in vitro [3]” (peptide concentration 10000) it was 92%; in the data set “in vitro [3]” (peptide concentration 20000) it was 89%; in “in vitro [3]” (peptide concentration 40000), 93.4%; in “in vitro [3]” (peptide concentration 60000) it was 90.5%. For the same compound, the viability at 24 h in “in vitro [3]” (peptide concentration 80000) was 94.5%; in “in vitro [3]” (peptide concentration 100000), 94.2%; in “in vitro [3]” (peptide concentration 400000), 100%; in “in vitro [3]” (peptide concentration 800000) it was 96.8%; in the data set “in vitro [4]” (peptide concentration 1000), 99.7%; in “in vitro [4]” (peptide concentration 4000), 102%. Further, the viability at 24 h came to 98% in the data set “in vitro [4]” (peptide concentration 8000); 97.5% in “in vitro [4]” (peptide concentration 10000); 94% in the data set “in vitro [4]” (peptide concentration 20000); 78.8% in “in vitro [4]” (peptide concentration 40000); 98.4% in “in vitro [4]” (peptide concentration 60000); 84.5% in the data set “in vitro [4]” (peptide concentration 80000). For the same compound, the viability at 24 h came to 88.8% in the data set “in vitro [4]” (peptide concentration 100000); 84.9% in the data set “in vitro [4]” (peptide concentration 200000); 94.8% in the data set “in vitro [5]” (peptide concentration 1000); 101% in “in vitro [5]” (peptide concentration 2000); 102% in “in vitro [5]” (peptide concentration 4000); 106% in “in vitro [5]” (peptide concentration 6000). Besides, the viability at 24 h in “in vitro [5]” (peptide concentration 8000) came out at 102%; in the data set “in vitro [5]” (peptide concentration 10000), 105%; in “in vitro [5]” (peptide concentration 50000), 102%; in the data set “in vitro [5]” (peptide concentration 100000) it was 105%; in “in vitro [5]” (peptide concentration 400000) it was 95.8%; in “in vitro [5]” (peptide concentration 800000), 101%. The “cell viability, Figure S7G” value in the data set with Calu-3 cells (peptide concentration 1000) was 98.6281 and 97.5158; with Calu-3 cells (peptide concentration 5000), 94.1787 and 96.4034; in the data set with Calu-3 cells (peptide concentration 10000), 96.4034 and 97.8865; with Calu-3 cells (peptide concentration 20000), 94.9203 and 96.4034; in the data set with Calu-3 cells (peptide concentration 40000) it was 95.6618 and 97.5158; with Calu-3 cells (peptide concentration 60000), 97.5158 and 96.0326. Moreover, the “cell viability, Figure S7G” value in the data set on Calu-3 cells (peptide concentration 80000) was 96.4034; in the data set on Calu-3 cells (peptide concentration 100000), 97.8865; in the data set with Calu-3 cells (peptide concentration 400000), 98.6281 and 97.5158; with Calu-3 cells (peptide concentration 800000), 99.7405 and 96.0326. Further, the “cell viability, Figure S7F” value in the data set with Vero E6 cells (peptide concentration 1000) is 96.8531 and 94.4056; in the data set on Vero E6 cells (peptide concentration 2000), 104.196 and 103.846; with Vero E6 cells (peptide concentration 4000) it was 104.895; with Vero E6 cells (peptide concentration 6000), 106.643 and 105.594; with Vero E6 cells (peptide concentration 8000), 101.049 and 100.35; in the data set on Vero E6 cells (peptide concentration 10000), 105.594. Also, the “cell viability, Figure S7F” value in the data set with Vero E6 cells (peptide concentration 50000) is 101.049 and 103.497; in the data set with Vero E6 cells (peptide concentration 400000), 94.0559 and 93.7063; with Vero E6 cells (peptide concentration 800000), 102.448. Moreover, the “cell viability, Figure S7E” value was 98.8246 and 101.437 in the data set with 17Cl-1 cells (peptide concentration 1000); 100.566 and 104.919 in the data set with 17Cl-1 cells (peptide concentration 4000); 94.9064 with 17Cl-1 cells (peptide concentration 8000); 94.471 and 89.2468 with 17Cl-1 cells (peptide concentration 10000); 89.6822 with 17Cl-1 cells (peptide concentration 20000); 87.0701 and 87.9408 in the data set on 17Cl-1 cells (peptide concentration 40000). Also, the “cell viability, Figure S7E” value in the data set with 17Cl-1 cells (peptide concentration 60000) is 91.4236 and 94.9064; in the data set on 17Cl-1 cells (peptide concentration 80000) it was 90.9882 and 92.2943; in the data set with 17Cl-1 cells (peptide concentration 100000), 101.001 and 93.6003; in the data set with 17Cl-1 cells (peptide concentration 200000), 85.764.
